The term mortality denotes the share of the test organisms that died.

Holding throughout (type): in vivo
For assay [1], the system named is Myzus persicae. Kind of assay: Myzus persicae spray test. As to conditions: foliar, 120 h, after 5 days, Chinese cabbage leaf disks. A digest of the protocol:
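Chinese cabbage leaf disks infested with all aphid instars were sprayed with compound diluted in water containing emulsifier (1000 ppm). Mortality (%) was scored after 5 days, 100% meaning all aphids killed.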

Assay [2] has as its system Rhipicephalus sanguineus. The assay can be described thus: Rhipicephalus sanguineus in-vitro contact test, adult brown dog ticks. To be noted: 5 μg/cm^2 (=500 g/ha), after 48 hours, read-out: efficacy (ticks dead or moribund). On the procedure:
Rhipicephalus Sanguineus—In-Vitro Contact Tests with Adult Brown Doe Ticks
9 mg compound is solved in 1 ml acetone and diluted with acetone to the desired concentration. 250 μl of the test solution is filled in 25 ml glass test tubes and homogeneously distributed on the inner walls by rotation and tilting on a shaking device (2 h at 30 rpm). With a compound concentration of 900 ppm, an inner surface of 44.7 cm^2 and a homogeneous distribution, a dose of 5 μg/cm^2 is achieved.
After the solvent has evaporated, each test tube is filled with 5-10 adult brown dog ticks (Rhipicephalus sanguineus), closed with a perforated lid and incubated in a lying position at room temperature and relative humidity. After 48 hours efficacy is determined. The ticks are patted on the ground of the tubes and are incubated on a heating plate at 45-50° C. for at most 5 minutes. Immotile or uncoordinated moving ticks, which are not able to escape the heat by climbing upwards, are marked as dead or moribund.
An efficacy of 100% means all ticks are dead or moribund; 0% means no ticks are dead or moribund.

Assay [3] deals with Spodoptera frugiperda. The assay can be described thus: Spodoptera frugiperda spray test. To be noted: 168 h, after 7 days, larvae on maize leaf sections. A digest of the protocol: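 Caterpillars are placed on sprayed, dried maize leaf sections. Sprays contain compound diluted in water with emulsifier at 1000 ppm; mortality in % is determined 7 days later.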
The subject of assay [4] is Myzus persicae. The assay can be described thus: Myzus persicae oral test. As to conditions: 120 h, 4 ppm, after 5 days. A digest of the protocol:
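Aphid mortality (%) was recorded 5 days after a mixed Myzus persicae population began sucking, through parafilm, on compound solutions (acetone stock diluted with water) combined with sugar-supplemented IPL41 medium.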

Assay [5] deals with cattle ticks (Boophilus microplus) strane Parhurst, SP-resistant. Kind of assay: Boophilus microplus dip test. To be noted: Rhipicephalus microplus, 168 h, engorged adult female cattle ticks, egg deposition after 7 days, read-out: efficacy (infertile eggs). On the procedure:
Boophilus microplus—Dip Test
Test animal: cattle ticks (Boophilus microplus) strane Parhurst, SP-resistant
Solvent: dimethyl sulfoxide
To produce a suitable preparation of active compound, 10 mg of active compound are dissolved in 0.5 ml solvent, and the concentrate is diluted with water to the desired concentration.
This compound solution is pipetted into tubes. 8-10 engorged, adult, female cattle ticks (Boophilus microplus) are placed in perforated tubes. These tubes are immersed in the aqueous compound solution until the ticks are completely moistened. After the liquid has drained off, the ticks are transferred to a filter paper in a plastic tray and stored in a climate chamber.
After 7 days egg deposition of fertile eggs is monitored. Eggs where fertility is not visible are stored in a climate chamber till hatching after about 42 days. An efficacy of 100% means all eggs are infertile; 0% means all eggs are fertile.

For assay [6], the system named is Anopheles funestus strain FUMOZ-R. Kind of assay: Anopheles funestus test (ANPHFU surface treatment & contact assay). To be noted: 24 hours after contact, read-out: efficacy (mortality); for mortality at 4 mg/m2: surface concentration 4 mg/m^2, exposure 30 minutes; for mortality at 20 mg/m2: surface concentration 20 mg/m^2, exposure 30 minutes. On the procedure:
Anopheles funestus Test (ANPHFU Surface Treatment & Contact Assay)
Solvent: Aceton+2000 ppm rapeseed oil methyl ester (RME)
In order to produce a sufficient, active ingredient containing solution it is necessary to solve the test compound in the solvent-mix (acetone at 2 mg/ml/RME 2000 ppm). This solution is pipetted onto a glazed tile and after evaporation of the acetone, adult mosquitoes of the species Anopheles funestus strain FUMOZ-R (Hunt et al., Med. Vet. Entomol. 2005 September; 19(3): 271-275) are placed onto the dried surface. The exposure time is 30 minutes.
Mortality in percent (%) is determined 24 hours after contact of the insects to the treated surface. 100% mortality means that all tested insects are dead, whereas 0% means that no insect died.

Assay [7] has as its system Nilaparvata lugens. Kind of assay: Nilaparvata lugens spray test. To be noted: 336 h, after 14 days, rice plants. In short, it runs like this: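 Rice plants sprayed with compound diluted in water with 1000 ppm emulsifier, then infested with brown planthopper. Mortality in % scored after 14 days (100% = all killed).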

`C[C@H](NC(=O)c1cc(Cl)cc(C(F)(F)F)c1)c1ncnn1-c1ccc(C#N)cn1` [Example I-009] had a mortality at 500 g/ha in assay [1] of 90%. Besides, the pest or weed control at 5 µg/cm2 in assay [2] was 100%. Further, in assay [3], the mortality at 100 g/ha was determined as 100% and the mortality at 500 g/ha turned out to be 100%. In assay [4], the mortality at 4 ppm came to 100%. For the same compound, the pest or weed control at 100 ppm in assay [5] stood at 100%.
Turning to `C[C@H](NC(=O)c1cc(Cl)cc(C(F)(F)F)c1)c1ncnn1-c1ncc(Cl)cc1F` [Example I-013], in assay [1], the mortality at 100 g/ha was found to be 90% and the mortality at 500 g/ha was 100%. In assay [3], the mortality at 100 g/ha stood at 100% and the mortality at 500 g/ha turned out to be 100%. Further, in assay [6], the mortality at 4 mg/m2 lay within 85 to 100% and the mortality at 20 mg/m2 fell in the range of 90 to 100%. In assay [5], the pest or weed control at 100 ppm was determined as 100%.
In assay [1], `C[C@H](NC(=O)c1cc(Cl)cc(C(F)(F)F)c1)c1ncnn1-c1cc(C#N)ccn1` [Example I-015] gave a mortality at 100 g/ha of 100% and a mortality at 500 g/ha of 100%. Also, in assay [2], the pest or weed control at 5 µg/cm2 stood at 100%. In assay [3], the mortality at 100 g/ha is 100% and the mortality at 500 g/ha stood at 100%. Moreover, the mortality at 20 mg/m2 in assay [6] was 90 to 100%. Besides, the mortality at 4 ppm in assay [4] came out at 100%.
As for `C[C@H](NC(=O)c1cc(F)cc(C#N)c1)c1ncnn1-c1ccc(C#N)cn1` [Example I-018], in assay [3], the mortality at 100 g/ha was determined as 100% and the mortality at 500 g/ha is 100%. Besides, in assay [6], the mortality at 4 mg/m2 lay in the range of 85 to 100% and the mortality at 20 mg/m2 was 90 to 100%. In assay [4], the mortality at 4 ppm turned out to be 90%.
In assay [3], `C[C@H](NC(=O)c1cc(F)cc(C(F)(F)F)c1)c1ncnn1-c1ccc(C#N)cn1` [Example I-019] showed a mortality at 100 g/ha of 100% and a mortality at 500 g/ha of 100%. For the same compound, in assay [6], the mortality at 4 mg/m2 was 85 to 100% and the mortality at 20 mg/m2 was 90 to 100%. Moreover, in assay [5], the pest or weed control at 100 ppm was 100%.
In assay [3], `C[C@H](NC(=O)c1cc(Cl)cc(C(F)(F)F)c1)c1ncnn1-c1ccc([N+](=O)[O-])cn1` [Example I-028] showed a mortality at 100 g/ha of 100% and a mortality at 500 g/ha of 100%. In assay [6], the mortality at 4 mg/m2 is 85 to 100% and the mortality at 20 mg/m2 is 90 to 100%. For the same compound, in assay [4], the mortality at 4 ppm came out at 100%. Moreover, the pest or weed control at 100 ppm in assay [5] worked out at 100%.
On to `C[C@H](NC(=O)c1cc(Cl)cc(C(F)(F)F)c1)c1ncnn1-c1ccc(NC(=O)C2CC2)cn1` [Example I-034, 3-chloro-N-[(1S)-1-(1-{5-[(cyclopropylcarbonyl)amino]pyridin-2-yl}-1H-1,2,4-triazol-5-yl)ethyl]-5-(trifluoromethyl)benzamide], for which the mortality at 100 g/ha in assay [1] and in assay [3] was 100% in each case. Moreover, the mortality at 500 g/ha in assay [1], in assay [7] and in assay [3] was 100% throughout. Moreover, the mortality at 4 mg/m2 in assay [6] lay within 85 to 100%. In addition, the mortality at 4 ppm in assay [4] is 100%.
In assay [7], `C[C@H](NC(=O)c1cc(Cl)cc(OC(F)(F)F)c1)c1ncnn1-c1ccc(C#N)cn1` [Example I-041, 3-chloro-N-{(1S)-1-[1-(5-cyanopyridin-2-yl)-1H-1,2,4-triazol-5-yl]ethyl}-5-(trifluoromethoxy)benzamide] registered a mortality at 500 g/ha of 90%. For the same compound, in assay [3], the mortality at 100 g/ha amounted to 100% and the mortality at 500 g/ha is 100%. In assay [6], the mortality at 4 mg/m2 was 85 to 100% and the mortality at 20 mg/m2 was 90 to 100%. Moreover, the mortality at 4 ppm in assay [4] came to 100%. For the same compound, the pest or weed control at 100 ppm in assay [5] was found to be 100%.
In assay [3], `C[C@H](NC(=O)c1cc(Cl)cc(SC(F)(F)F)c1)c1ncnn1-c1ccc(C#N)cn1` [Example I-042] returned a mortality at 100 g/ha of 100% and a mortality at 500 g/ha of 100%. Also, in assay [6], the mortality at 4 mg/m2 fell in the range of 85 to 100% and the mortality at 20 mg/m2 is 90 to 100%. In assay [4], this compound gave a mortality at 4 ppm of 100%. In assay [5], the pest or weed control at 100 ppm was determined as 80%.
With `C[C@H](NC(=O)c1cc(Cl)cc(Br)c1)c1ncnn1-c1ccc(C#N)cn1` [Example I-046], in assay [3], the mortality at 100 g/ha stood at 100% and the mortality at 500 g/ha was 100%. For the same compound, in assay [6], the mortality at 4 mg/m2 was 85 to 100% and the mortality at 20 mg/m2 was in the range of 90 to 100%. This compound displayed a mortality at 4 ppm in assay [4] of 100%. Moreover, in assay [5], the pest or weed control at 100 ppm came to 100%.
Consider `C[C@H](NC(=O)c1cc(Cl)cc(Cl)c1)c1ncnn1-c1ccc(C#N)cn1` [Example I-047], for which, in assay [3], the mortality at 100 g/ha was found to be 100% and the mortality at 500 g/ha was determined as 100%. In assay [6], the mortality at 4 mg/m2 was in the range of 85 to 100% and the mortality at 20 mg/m2 is 90 to 100%. Also, the pest or weed control at 100 ppm in assay [5] came to 100%.
On to `C[C@H](NC(=O)c1cc(Cl)cc(S(F)(F)(F)(F)F)c1)c1ncnn1-c1ccc(C#N)cn1` [Example I-048], for which the mortality at 500 g/ha in assay [7] and in assay [3] was 100% throughout. This compound registered a mortality at 100 g/ha in assay [3] of 100%. For the same compound, the mortality at 4 mg/m2 in assay [6] was in the range of 85 to 100%. In addition, in assay [4], the mortality at 4 ppm came out at 100%.
For the compound `Cc1nc([C@H](C)NC(=O)c2cc(Cl)cc(C(F)(F)F)c2)n(-c2ccc(C#N)cn2)n1` [Example I-049], the mortality at 100 g/ha in assay [1] and in assay [3] was 100% in each case. For the same compound, the mortality at 500 g/ha in assay [1] came to 90%; in assay [7], 100%; in assay [3] it was 100%. For the same compound, the pest or weed control at 5 µg/cm2 in assay [2] came out at 100%. In addition, the mortality at 20 mg/m2 in assay [6] lay within 90 to 100%. Also, the mortality at 4 ppm in assay [4] is 100%. Further, the pest or weed control at 100 ppm in assay [5] was 100%.
Consider `C[C@H](NC(=O)c1cc(C(F)(F)F)cc(C(F)(F)F)c1)c1ncnn1-c1ccc(C#N)cn1` [Example I-052], for which the mortality at 500 g/ha in assay [1] was determined as 90%. In addition, in assay [2], the pest or weed control at 5 µg/cm2 was determined as 100%. In assay [3], the mortality at 100 g/ha came out at 100% and the mortality at 500 g/ha came to 100%. Also, the mortality at 4 mg/m2 in assay [6] was in the range of 85 to 100%. The same compound registered a mortality at 4 ppm in assay [4] of 100%.
Turning to `Cc1nc([C@H](C)NC(=O)c2cc(C(F)(F)F)cc(C(F)(F)F)c2)n(-c2ccc(C#N)cn2)n1` [Example I-056], the mortality at 100 g/ha in assay [1] and in assay [3] was 100% throughout. Moreover, the mortality at 500 g/ha was 90% in assay [1] and 100% in assay [3]. Besides, the pest or weed control at 5 µg/cm2 in assay [2] amounted to 100%. Further, the mortality at 4 ppm in assay [4] worked out at 100%.

For the origin of these results see patent US12171229B2, “Heteroaryl-triazole and heteroaryl-tetrazole compounds as pesticides” (BAYER AKTIENGESELLSCHAFT, priority 2018, dated 2024).
